From patent publication US10538520B2, “Benzamide and nicotinamide compounds and methods of using same” (OncoTartis Inc., priority 2013, dated 2020)

Columns and labels:
U-937 = assay: Cytotoxicity towards U-937 cell line; format: cell-based; settings: Homo sapiens
Method: (§1) In various embodiments, the compounds of the disclosure are those in which show IC50 values in cytotoxicity experiments towards cells lines MV4-11 and U937 of >20 μM, 10-20 μM, 5-10 μM, 1-5 μM, or <1 μM.
(§2) The IC50 is divided into 5 categories: A<1 μM, B 1-5 μM, C 5-10 μM, D 10-20 μM, and E>20 μM.

MV4-11 = assay: Cytotoxicity towards MV4-11 cell line; format: cell-based; settings: Homo sapiens
Method: as §1, §2

MV4-11 cells = assay: Systemic (disseminated) MV4-11 model of AML in SCID mice, survival; format: in vivo; settings: 6 days per week, days 4-58, IV MV4-11 (FIG. 3)
Method: FIG. 3. Example of survival of SCID mice inoculated via IV route with MV4-11 cells and treated via oral gavage with vehicle control, TT-01901 at 100 mg/kg and TT-03586 at 50 mg/kg 6 days per week on days 4-58. Mice were sacrificed according to IACUC regulations after losing more than 20% of body weight or becoming moribund and paralyzed.
Efficacy of compounds was tested in two types of xenograft models of leukemia: subcutaneous (SC) (development of tumors after SC inoculation of cells) and systemic and disseminated (development of tumors on different organs after intravenous inoculation of cells). MV4-11 cells (ATCC CRL-9591) of acute myelomonocytic leukemia (AML) were used.
In this model leukemia cells either from patient of from cell lines are administered intravenously into mice and leukemia cells are engrafted into blood and blood-forming organs (bone marrow, thymus, spleen).
In systemic model of AML SCID mice were irradiated with 3 Gy and inoculated intravenously with MV4-11 cells 24 h after irradiation. Mice were treated with vehicle control, TT-01901 and TT-03586 during days 4-58 (FIG. 3). 30 days after cells implantation mice treated with vehicle were gradually becoming sick, scruffy and were losing weight. […] The ratio of survival of treated mice versus survival of control mice in percent (T/C) was calculated using formula: T/C %=average survival time for treated mice/average survival time for control mice*100. Increase in the survival (IS) was calculated using formula: IS=(average survival time of treated mice−average survival time of control mice)/average survival time of control mice*100. […] The corresponding increase in survival was 35% and 48%.

O=C(NCCCn1ccnc1)c1ccc(-n2cccn2)c(C#Cc2ccccc2)c1 [TT-01901]
IC50 (U-937): < 1000 nM | IC50 (MV4-11): < 1000 nM | increase in survival (IS) (MV4-11 cells; 100 mg/kg oral gavage): 35% | survival of treated mice versus control mice (T/C %) (MV4-11 cells; 100 mg/kg oral gavage): 135%

O=C(NCCCc1cn[nH]c1)c1ccc(N2CCOCC2)c(C#Cc2ccc(F)cc2)c1 [TT-03586]
IC50 (U-937): < 1000 nM | IC50 (MV4-11): < 1000 nM | increase in survival (IS) (MV4-11 cells; 50 mg/kg oral gavage): 48% | survival of treated mice versus control mice (T/C %) (MV4-11 cells; 50 mg/kg oral gavage): 148%
